Measured values taken from patent publication US5322847A, “Azabenzimidazoles in the treatment of asthma, arthritis and related diseases” (Pfizer Inc., priority 1992, dated 1994).
pKd: −log10 of the molar value.

How the values were obtained:
[1] = biological target: T1, PAF receptor sites on rabbit platelet homogenate (Oryctolagus cuniculus, UniProt G1TEI7); experiment: platelet activating factor (PAF) receptor assay; format: binding; conditions: radioligand 3H-PAF; constant used in Ki=(IC50)/[1+(L/Kd)]; 25° C., sodium-free buffer +0.25% BSA; read-out: Kd (dissociation constant)
T1 construct: specific PAF receptor sites on rabbit platelet homogenate; tissue Rockland, Inc., Gilbertsville, Pa; (rabbit blood mixture); host or cells: platelets from blood of normal New Zealand white rabbits, freeze-thawed homogenate
Source text: The platelet activating factor (PAF) receptor assay tests the ability of a compound to compete with radiolabeled PAF for specific PAF receptor sites on rabbit platelet homogenate.
Five hundred milliliters of a rabbit blood mixture is purchased from Rockland, Inc., Gilbertsville, Pa. The blood mixture is 4 parts blood: 1 part 4% sodium citrate (v/v), and is obtained by heart puncture from normal, approximately 8-month old New Zealand white rabbits. The blood mixture is delivered overnight on wet ice (approx. 8° C.).
The blood mixture is centrifuged at 514 g for 10 minutes. The supernatant platelet-rich plasma is gently laid over Ficoll-Paque (Pharmacia) at a ratio of 9 parts plasma:2 parts Ficoll (v/v) The plasma/Ficoll mixture is centrifuged at 856 g for 20 minutes. […] Protein concentration of the suspension is determined by a Bio-Rad assay. […]
The reaction tubes are incubated at 25° C. for 45 minutes. […] The vial is capped, vortexed and counted for 3H.
Percent specific binding is calculated using the formula
Percent specific binding is graphed as a function of compound concentration. […] Alternatively, the IC50 is calculated using the logistic dose-response (Hill plot) option of the VAX Biostat utility. The inhibitory constant (Ki) is calculated by using the formula […]

[2] = system: PAF lethality in CDl male mice; experiment: PAF lethality assay; format: in vivo; conditions: Mus musculus; positive control; oral dosing 45 minutes before i.v. PAF injection; read-out: approximate ED 50
Procedure: To evaluate the compounds of the formula (I) in vivo, they are tested by the so-called PAF lethality assay procedure:
Mice: CDl males, all approximately the same weight (approximately 26 grams), 12 per group.
Vehicle for oral drug dosing: EES (5% ethanol, 5% emulphor, 90% saline). Stored at room temperature.
Drugs: For routine screening at 50 mg/kg, 20 mg drug is dissolved in 4 ml EES, using sonication in a sonicator bath or grinding in a Ten Broeck grinder to dissolve drug if necessary. If solubility is still a problem, the drug is used as a suspension.
Vehicle for i.v. Injection: Saline with 2.5 mg/ml Bovine Serum Albumin (BSA, Sigma #A4378) and 0.05 mg/ml Propranolol (Sigma #PO884). Prepared fresh daily and kept at room temperature.
Platelet Activating Factor (PAF): A […] stock solution is prepared by dissolving 1 mg PAF (Calbiochem #429460) in 0.18 ml ethanol. This is stored at -20° C. and is diluted in vehicle (see above) the day of use. The concentration of PAF used is calibrated so that when injected at 0.1 ml/10 grams body weight, it will kill approximately 80% of untreated controls. This is usually about […] (a 1 to 2034 dilution from stock). […]
Method: 45 minutes before PAF injection, mice are treated orally with drug using 0.1 ml/10 grams body weight. […] Results are expressed as percent mortality as compared to controls. […]

T1 sequence (G1TEI7 1-342): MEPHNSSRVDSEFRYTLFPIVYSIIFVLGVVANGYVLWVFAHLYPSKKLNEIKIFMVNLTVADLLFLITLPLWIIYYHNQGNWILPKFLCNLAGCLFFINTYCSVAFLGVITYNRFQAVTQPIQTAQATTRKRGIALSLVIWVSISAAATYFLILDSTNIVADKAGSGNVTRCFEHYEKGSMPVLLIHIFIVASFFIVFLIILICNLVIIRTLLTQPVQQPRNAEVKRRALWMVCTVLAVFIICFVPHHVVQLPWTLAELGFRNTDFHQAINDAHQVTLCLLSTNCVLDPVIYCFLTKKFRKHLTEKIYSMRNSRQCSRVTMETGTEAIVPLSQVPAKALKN

Row | Structure (SMILES) | pKd [1] | ED50 [2] [mg/kg]
1 | CCCCCCCCCCCCCCCCOCC(COP(=O)([O-])OCC[N+](C)(C)C)OC(C)=O (centres unmarked) [Example 3H-PAF] | 9.08 | –
2 | O=C1CCN(c2ccccc2)N1 [Phenidone] | – | ~25
